Structures are written as SMILES.

The subject of assay [1] is HMC3 cells. The experiment in a line: Lipid peroxidation level by flow cytometry using C11-BODIPY. Type of assay: cell-based. To be noted: HMC3, 50 nM RSL3 2 h, then 50, 25 and 12.5 μM compound 3 h. The procedure: (§1) For flow cytometry, HMC3 cells (seeded 50,000 cells per well on 24-well plate one day prior to the experiment) were pretreated with 50 nM RSL3 for 2 h. […] After which medium was replaced with BODIPY™ 581/591C11 (10 μM, Invitrogen) or CellROX™ Green (5 μM, Invitrogen) for 30 min staining. Cells were then washed 3 times with PBS and collected. Fluorescence was measured by BD FACSympgony A5.2 SORP Flow Cell Analyzer (BD Biosciences).
Disequilibrium ROS level acts as a direct initiator of lipid peroxidation, which is one of the major hallmarks of ferroptosis. In this example, HMC3 cells according to the conditions in Table 4 were subjected to measurement of lipid peroxidation level using flow cytometry and the lipid peroxidation sensor C11-BODIPY.
For flow cytometry, HMC3 cells (seeded 50,000 cells per well on 24-well plate one day prior to the experiment) were pretreated with 50 nM RSL3 for 2 h. After RSL3 treatment, medium was replaced by DMSO (0.1%) only, SXQ087-1 (10, 5 and 2.5 μM), following by 3 h treatment. After which medium was replaced with BODIPY™ 581/591C11 (10 μM, Invitrogen) for 30 min staining. Cells were then washed 3 times with PBS and collected. Fluorescence was measured by BD FACSympgony A5.2 SORP Flow Cell Analyzer (BD Biosciences).
Lipid peroxidation is one of the major hallmarks of ferroptosis. In this example, HMC3 cells according to the conditions in Table 5 were subjected to measurement of lipid peroxidation level using flow cytometry and the lipid peroxidation sensor C11-BODIPY.

The nature of assay [2]: Single-dose CCK-8 cell viability screening (adherent cells). To be noted: Homo sapiens, A549, 48 h, average of A549 and Jurkat % viability, 50 uM, 48 h. Type of assay: cell-based, human.
The subject of a further assay is A549 cells. The description is as above. Format: cell-based, human. To be noted: Homo sapiens, A549, 48 h, A549 cells, 50 uM, 48 h, CCK-8; read-out: % Viability (50 uM, 48 h) A549.
Assay [3] concerns HMC3 cells. As to the kind of experiment: Intracellular ROS level by CellROX (fluorescent imaging and flow cytometry). Type of assay: cell-based. To be noted: HMC3, 50 nM RSL3 2 h, then 50 μM compound 3 h. As for the experimental part: as §1
For fluorescent imaging, 10,000 cells per well of HMC3 were laid on cover slip and incubated overnight. After the same compound treatment as described above in this section, cells were subsequently incubated with CellROX™ Green and Hoechst 34580 (MCE) for 30 min. After incubation, cells were washed 3 times gently with PBS. Cover slips were then attached to glass slides by Anti-Fade Fluorescence Mounting Medium (Abcam) and imaged via ECLIPSE Ti fluorescence microscope (Nikon). Fluorescent intensity was quantified using imageJ software.
To further evaluate the anti-ferroptotic properties of bilobalide analogues, we tested its effect on the total level of intracellular reactive oxygen species (ROS), we performed fluorescent staining on the HMC3 cell line using CellROX, which is a probe which can emit green fluorescence after reacting with ROS. […]
In general terms: A flow cytometer gives signals particle by particle.

A word on the viability: it is a per cent measure of how many cells are alive, often set against a control. For `CC(C)(C)[C@]1(O)C[C@@H]2OC(=O)C[C@@]23C(=O)O[C@@H]2N(c4ccc(N)cc4)C(=O)[C@H](OC(=O)c4ccccc4)[C@]213` [XBB-037, 4-(3aS,5aS,8R,9R,10aS)-8-(benzoyloxy)-9-(tert-butyl)-9-hydroxy-2,4,7-trioxohexahydro-4H,9H-furo[3″,2″:2′,3′]cyclopenta[1′,2′:3,4]furo[2,3-b]pyrrol-6(5aH)-yl)benzenaminium chloride], the “lipid peroxidation level (C11-BODIPY)” value in the assay on HMC3 cells [1] is “significant down-regulation of RSL3-induced lipid peroxidation accumulation in a dose-dependent manner”. Further, the values for the viability at 50 µM (in assay [2]; with A549 cells) were 90.5% and 95%, respectively. In addition, the “intracellular ROS level (CellROX fluorescent staining)” value in the assay with HMC3 cells [3] was “significantly reduced intracellular ROS level”.

The values above are taken from patent US20250144069A1, “BILOBALIDE DERIVATIVE COMPOUNDS FOR TREATING NEUROLOGICAL DISEASES AND CANCERS” (The Chinese University of Hong Kong, priority 2023, published 2025).
